Patent US20240400583A1, “TRICYCLIC SULFAMIDES AND SULTAMS” (Merck Sharp & Dohme LLC, priority 2021, published 2024)

Columns and labels:
DCAF15 = target: T1, DCAF15 (Homo sapiens, UniProt Q66K64, DEL276-383); experiment: DCAF15 Displacement Assay (displacement of probe PT7795, FRET); type: binding; conditions: competition with 300 nM PT7795 on DDA1-DDB1ΔB-DCAF15Δpro triplex, 18 hours incubation, FRET 665/615
T1 construct: made in house; host or cells: Sf9 (baculovirus, Bac-to-Bac)
From the text: (§1) Proteins used for the assays were as follows: Human DDA1 (UniProt:Q9BW61), DDB1 (UniPro:Q16531), and DCAF15 (UniProt:Q66K64) coding sequences were cloned into pFastBac1 vectors and were co-expressed in Sf9 cells using Bac-to-Bac baculovirus expression system (Thermo Fisher Scientific). The expression construct for DCAF15 includes a N-terminal His6-tag to facilitate the purification. The atrophin-1 homology region of DCAF15 (amino acid residues 276-383) was excised (Apro, originally to facilitate crystallization). Triplex of DDA1-DDB1ΔB-DCAF15Apro, which has the BPB domain (aa 396 to 705) excised and replaced with a GNGNSG linker, was used in all the kinetic measurements because of the higher yield. R^1R^2 of RBM39 (aa 150 to 331; UniProt: Q14498) contained a C-terminal FLAG tag used in the DCAF15/RBM39 complex formation assay. DCAF15 Displacement Assay (Displacement FRET KD)
The previously described procedure was followed (See X. Du, et al., “Structural Basis and Kinetic Pathway of RBM39 Recruitment to DCAF15 by a Sulfonamide Molecular Glue E7820”, Structure, 27, 1625-1633.e3, 2019). Synthesis of the probe PT7795 is described in the article.
Binding of PT7795 to DDA1-DDB1ΔB-DCAF15Apro was measured by the FRET signal between europium-labeled anti-His antibody (AD0205, Perkin Elmer) that is associated with His-tagged DCAF15 and ALX647 moiety in PT7795. The concentration of PT7795 was varied from 2.3 nM to 1000 nM in 16 wells, each containing 25 mM HEPES pH7.5, 100 mM NaCl, 0.1 mg/ml BSA, 0.005% Tween 20, 0.5 mM TCEP, 4% DMSO, 0.5 nM europium-labeled anti-His antibody, and 10 nM triplex of DDA1-DDB1 DB-DCAF15 Apro. After equilibrating for 2-3 hours at 4° C., the plate was removed from the incubator, briefly spun, then read on a Spark 10 (Tecan) at the excitation/emission wavelength of 340 nm/615 nm and 340 nm/665 nm. To obtain Kd, the ratio of 665/615 readings was fitted to Equation 1, where F stands for the ratio of 665/615 […].
Binding of compounds in this disclosure to DCAF15 was measured in a competition by the displacement of PT7795. The concentration of PT7795 was kept at 300 nM while the concentration of a compound was varied from 0.01 to 100 μM. The incubation time was increased to 18 hours for enhanced signal to noise level. To obtain IC50, the ratio of 665/615 readings was fitted to Equation 2, where n is Hill slope.

[1] = target: T2, DCAF15 RBM39 ternary complex (Homo sapiens, UniProt Q14498+Q66K64, DEL276-383); experiment: DCAF15 RBM39 Ternary Complex Formation Assay; type: binding; conditions: apparent EC50 for compound-induced complex formation, 10 nM DCAF15 triplex, 50 nM RBM39 R1R2, FRET 665/615
T2 construct: RBM39 (aa 150 to 331; UniProt: Q14498); TEV cleavage site (pGEX4T3 vector); made in house; host or cells: Sf9 (baculovirus) for the triplex; E. coli for the RBM39 fragment according to b294
From the text: as §1
His-tagged DDA1-DDB1ΔB-DCAFISΔpro triplex and RIR2 with a C-terminal FLAG were used in the assay and compound-induced complex formation was monitored through resonance transfer between europium-labeled anti-His antibody and APC-labeled anti-FLAG antibody (AD0059F, Perkin Elmer).

SMILES	IC50 (DCAF15)	EC50 [1]
COCCOCCCN1Cc2cc(Cl)c3c(Cl)c[nH]c3c2NS1(=O)=O [Compound 1, 6,7-dichloro-3-(3-(2-methoxyethoxy)propyl)-1,3,4,9-tetrahydro-[1,2,6]thiadiazino[4,3-g]indole 2,2-dioxide]	1420 nM	12.7 nM
COCCOCCOCCCN1Cc2cc(Cl)c3c(Cl)c[nH]c3c2NS1(=O)=O [Compound 2, 6,7-dichloro-3-(3-(2-(2-methoxyethoxy)ethoxy)propyl)-1,3,4,9-tetrahydro-[1,2,6]thiadiazino[4,3-g]indole 2,2-dioxide]	25000 nM	247 nM
COCCCCCOCCCN1Cc2cc(Cl)c3c(Cl)c[nH]c3c2NS1(=O)=O [Compound 3, 6,7-dichloro-3-(3-((5-methoxypentyl)oxy)propyl)-1,3,4,9-tetrahydro-[1,2,6]thiadiazino[4,3-g]indole 2,2-dioxide]	2500 nM	21.4 nM
COCCCCC(=O)N1CCCC(CN2Cc3cc(Cl)c4c(Cl)c[nH]c4c3NS2(=O)=O)C1 (stereo not drawn) [Compound 7, 1-(3-((6,7-dichloro-2,2-dioxido-4,9-dihydro-[1,2,6]thiadiazino[4,3-g]indol-3(1H)-yl)methyl)piperidin-1-yl)-5-methoxypentan-1-one]	480 nM	10.6 nM
CNC(=O)c1[nH]c2c3c(cc(Cl)c2c1Cl)CN(CC1CCCNC1)S(=O)(=O)N3 (stereo not drawn) [Compound 10, 6,7-dichloro-N-methyl-3-(piperidin-3-ylmethyl)-1,3,4,9-tetrahydro-[1,2,6]thiadiazino[4,3-g]indole-8-carboxamide 2,2-dioxide]	2090 nM	> 25000 nM
CNC(=O)c1[nH]c2c3c(cc(Cl)c2c1Cl)CN(CC1CCCN(C(=O)OC(C)(C)C)C1)S(=O)(=O)N3 (stereo not drawn) [Compound 11, tert-butyl 3-((6,7-dichloro-8-(methylcarbamoyl)-2,2-dioxido-4,9-dihydro-[1,2,6]thiadiazino[4,3-g]indol-3(1H)-yl)methyl)piperidine-1-carboxylate]	1440 nM	> 25000 nM
CNC(=O)c1[nH]c2c3c(cc(Cl)c2c1Cl)CN(CC1CCCN(C(C)=O)C1)S(=O)(=O)N3 (stereo not drawn) [Compound 12, 3-((1-acetylpiperidin-3-yl)methyl)-6,7-dichloro-N-methyl-1,3,4,9-tetrahydro-[1,2,6]thiadiazino[4,3-g]indole-8-carboxamide 2,2-dioxide]	679 nM	> 25000 nM
COCCCN1Cc2cc(Cl)c3c(Cl)c(C(=O)OC)[nH]c3c2NS1(=O)=O [Compound 13, methyl 6,7-dichloro-3-(3-methoxypropyl)-1,3,4,9-tetrahydro-[1,2,6]thiadiazino[4,3-g]indole-8-carboxylate 2,2-dioxide]	1300 nM	> 25000 nM
CCOC(=O)c1[nH]c2c3c(cc(Cl)c2c1Cl)CN(CCCOC)S(=O)(=O)N3 [Compound 14, ethyl 6,7-dichloro-3-(3-methoxypropyl)-1,3,4,9-tetrahydro-[1,2,6]thiadiazino[4,3-g]indole-8-carboxylate 2,2-dioxide]	2050 nM	2510 nM
CNC(=O)c1[nH]c2c3c(cc(Cl)c2c1Cl)CN(CCCOC)S(=O)(=O)N3 [Compound 15, 6,7-dichloro-3-(3-methoxypropyl)-N-methyl-1,3,4,9-tetrahydro-[1,2,6]thiadiazino[4,3-g]indole-8-carboxamide 2,2-dioxide]	1280 nM	> 25000 nM
COCCCN1Cc2cc(Cl)c3c(Cl)c(CCCC(=O)O)[nH]c3c2NS1(=O)=O [Compound 18, 4-(6,7-dichloro-3-(3-methoxypropyl)-2,2-dioxido-1,3,4,9-tetrahydro-[1,2,6]thiadiazino[4,3-g]indol-8-yl)butanoic acid]	652 nM	> 25000 nM
COCCCN1Cc2cc(Cl)c3c(Cl)c(CCCC(N)=O)[nH]c3c2NS1(=O)=O [Compound 19, 4-(6,7-dichloro-3-(3-methoxypropyl)-2,2-dioxido-1,3,4,9-tetrahydro-[1,2,6]thiadiazino[4,3-g]indol-8-yl)butanamide]	824 nM	> 25000 nM
CC(C)(C)OC(=O)N1CCCC(CN2Cc3cc(Cl)c4c(Cl)c(CCCC(N)=O)[nH]c4c3NS2(=O)=O)C1 (stereo not drawn) [Compound 22, tert-butyl 3-((8-(4-amino-4-oxobutyl)-6,7-dichloro-2,2-dioxido-4,9-dihydro-[1,2,6]thiadiazino[4,3-g]indol-3(1H)-yl)methyl)piperidine-1-carboxylate]	5780 nM	> 25000 nM

The next molecules have a lower IC50 (DCAF15) than those just listed; values first:

IC50 (DCAF15)	EC50 [1]	SMILES
200 nM	4.3 nM	COCCOCC(=O)N1CCC(CN2Cc3cc(Cl)c4c(Cl)c[nH]c4c3NS2(=O)=O)CC1 [Compound 4, 1-(4-((6,7-dichloro-2,2-dioxido-4,9-dihydro-[1,2,6]thiadiazino[4,3-g]indol-3(1H)-yl)methyl)piperidin-1-yl)-2-(2-methoxyethoxy)ethan-1-one]
98 nM	7.8 nM	COCCOCC(=O)N1CCCC(CN2Cc3cc(Cl)c4c(Cl)c[nH]c4c3NS2(=O)=O)C1 (stereo not drawn) [Compound 5, 1-(3-((6,7-dichloro-2,2-dioxido-4,9-dihydro-[1,2,6]thiadiazino[4,3-g]indol-3(1H)-yl)methyl)piperidin-1-yl)-2-(2-methoxyethoxy)ethan-1-one]
156 nM	4.3 nM	COCCCCC(=O)N1CCC(CN2Cc3cc(Cl)c4c(Cl)c[nH]c4c3NS2(=O)=O)CC1 [Compound 6, 1-(4-((6,7-dichloro-2,2-dioxido-4,9-dihydro-[1,2,6]thiadiazino[4,3-g]indol-3(1H)-yl)methyl)piperidin-1-yl)-5-methoxypentan-1-one]
261 nM	4.5 nM	CC(C)(C)OC(=O)NCCCCC(=O)N1CCC(CN2Cc3cc(Cl)c4c(Cl)c[nH]c4c3NS2(=O)=O)CC1 [Compound 8, tert-butyl (5-(4-((6,7-dichloro-2,2-dioxido-4,9-dihydro-[1,2,6]thiadiazino[4,3-g]indol-3(1H)-yl)methyl)piperidin-1-yl)-5-oxopentyl)carbamate]
244 nM	4.9 nM	NCCCCC(=O)N1CCC(CN2Cc3cc(Cl)c4c(Cl)c[nH]c4c3NS2(=O)=O)CC1 [Compound 9, 5-amino-1-(4-((6,7-dichloro-2,2-dioxido-4,9-dihydro-[1,2,6]thiadiazino[4,3-g]indol-3(1H)-yl)methyl)piperidin-1-yl)pentan-1-one]
105 nM	> 25000 nM	CC(=O)N1CCCC(CN2Cc3cc(Cl)c4c(Cl)c(CCCC(N)=O)[nH]c4c3NS2(=O)=O)C1 (stereo not drawn) [Compound 20, 4-(3-((1-acetylpiperidin-3-yl)methyl)-6,7-dichloro-2,2-dioxido-1,3,4,9-tetrahydro-[1,2,6]thiadiazino[4,3-g]indol-8-yl)butanamide]
277 nM	> 25000 nM	O=C(O)CCCc1[nH]c2c3c(cc(Cl)c2c1Cl)CN(CC1CCCNC1)S(=O)(=O)N3 (stereo not drawn) [Compound 23, 4-(6,7-dichloro-2,2-dioxido-3-(piperidin-3-ylmethyl)-1,3,4,9-tetrahydro-[1,2,6]thiadiazino[4,3-g]indol-8-yl)butanoic acid]
317 nM	> 25000 nM	COC(=O)CCCc1[nH]c2c3c(cc(Cl)c2c1Cl)CN(Cc1ccnc(O)c1)S(=O)(=O)N3 [Compound 24, methyl 4-(6,7-dichloro-3-((2-hydroxypyridin-4-yl)methyl)-2,2-dioxido-1,3,4,9-tetrahydro-[1,2,6]thiadiazino[4,3-g]indol-8-yl)butanoate]
